From patent publication US11548868B2, “Heterocyclic compounds, compositions comprising heterocyclic compound, and methods of use thereof” (JS INNOPHARM (SHANGHAI) LTD, priority 2017, dated 2023)

How the values were obtained:
[1] = biological target: T1, TDO2 in A172 cancer cells (Homo sapiens, UniProt P48775); test: TDO2 Cellular Assay (kynurenine production in A172 cancer cells); format: cell-based; details: L-Trp 1 mM, 24 hours incubation, kynurenine at 490 nm
T1 construct: endogenous in cells; host or cells: A172 cancer cells
In short: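 A172 cells seeded overnight, then given 1 mM L-Trp and test compound (0–25 μM, 0.25% DMSO) for 24 h at 37 °C. Supernatant treated with TCA at 50 °C to convert N-formylkynurenine, kynurenine detected with p-dimethylaminobenzaldehyde at 490 nm; IC50 by non-linear regression of inhibition versus DMSO control.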

[2] = biological target: T2, IDO1 in Hela cancer cells (Homo sapiens, UniProt P14902); test: IDO1 Cellular Assay (kynurenine production in IFN-γ stimulated Hela cancer cells); format: cell-based; details: human IFN-γ 50 ng/mL, 48 hours incubation, kynurenine at 490 nm
T2 construct: endogenous in cells; host or cells: Hela cancer cells stimulated with human IFN-γ
In short: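 HeLa cells stimulated with 50 ng/mL IFN-γ (final) and treated 48 h with compound (0–25 μM final, 0.25% DMSO). Supernatant kynurenine measured after TCA hydrolysis and p-dimethylaminobenzaldehyde reaction at 490 nm; inhibition vs DMSO control, IC50 by non-linear regression.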

T1 sequence (P48775 whole entry): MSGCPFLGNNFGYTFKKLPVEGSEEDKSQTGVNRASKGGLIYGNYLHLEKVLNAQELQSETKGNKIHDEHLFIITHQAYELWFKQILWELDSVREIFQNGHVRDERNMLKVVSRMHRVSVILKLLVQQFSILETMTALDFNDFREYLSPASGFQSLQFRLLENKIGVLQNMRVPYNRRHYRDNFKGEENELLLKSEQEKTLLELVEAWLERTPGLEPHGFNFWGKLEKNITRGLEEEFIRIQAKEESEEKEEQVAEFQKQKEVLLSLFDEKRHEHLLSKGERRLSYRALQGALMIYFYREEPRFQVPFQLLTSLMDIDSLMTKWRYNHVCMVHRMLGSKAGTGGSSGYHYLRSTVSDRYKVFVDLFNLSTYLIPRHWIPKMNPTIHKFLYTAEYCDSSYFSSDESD
T2 sequence (P14902 whole entry): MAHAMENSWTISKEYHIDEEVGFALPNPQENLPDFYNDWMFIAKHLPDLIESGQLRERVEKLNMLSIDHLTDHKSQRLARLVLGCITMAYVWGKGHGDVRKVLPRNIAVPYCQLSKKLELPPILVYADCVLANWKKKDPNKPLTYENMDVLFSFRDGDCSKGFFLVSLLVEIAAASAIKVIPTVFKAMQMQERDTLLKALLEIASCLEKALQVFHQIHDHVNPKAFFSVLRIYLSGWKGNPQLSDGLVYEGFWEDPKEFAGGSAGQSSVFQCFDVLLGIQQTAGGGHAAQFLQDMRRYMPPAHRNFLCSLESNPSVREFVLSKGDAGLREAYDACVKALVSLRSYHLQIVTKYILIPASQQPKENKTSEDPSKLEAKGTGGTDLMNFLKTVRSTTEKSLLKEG

Row | SMILES | IC50 [1] [nM] | IC50 [2] [µM]
1 | O[C@@H]1C[C@@H]2C[C@@](O)(c3cc(Cl)cc4cn[nH]c34)C[C@@H]2C1 [Example 106, (2r,3aR,5s,6aS)-2-(5-chloro-1H-indazol-7-yl)octahydropentalene-2,5-diol] | 500 to 1000 | > 5
2 | CC1(C)[C@H]2CN(c3c(C(F)(F)F)ccc4cncn34)C[C@H]2CN1S(C)(=O)=O (racemic) [Example 48, Racemic-5-((3aR,6aS)-4,4-dimethyl-5-(methylsulfonyl)hexahydropyrrolo[3,4-c]pyrrol-2(1H)-yl)-6-(trifluoromethyl)imidazo[1,5-a]pyridine] | > 5000 | > 5
3 | CC(=O)N1C[C@@H]2C[C@@](O)(c3cc(Cl)cn4cncc34)C[C@@H]2C1 [Example 6, 1-((3aR,5r,6aS)-5-(6-chloroimidazo[1,5-a]pyridin-8-yl)-5-hydroxyhexahydrocyclopenta[c]pyrrol-2(1H)-yl)ethanone] | 500 to 1000 | > 5
4 | CC(=O)N1C[C@@H]2CN(c3cc(C(F)(F)F)cn4cncc34)C[C@@H]2C1(C)C (racemic) [Example 45, Racemic-1-((3aS,6aR)-1,1-dimethyl-5-(6-(trifluoromethyl)imidazo[1,5-a]pyridin-8-yl)hexahydropyrrolo[3,4-c]pyrrol-2(1H)-yl)ethanone] | 1000 to 5000 | > 5
5 | O=C(Nc1ccccc1)N[C@H]1[C@@H]2C[C@@](O)(c3cc(Cl)cc4cn[nH]c34)C[C@@H]21 [Example 132, 1-((1R,3r,5S,6r)-3-(5-chloro-1H-indazol-7-yl)-3-hydroxybicyclo[3.1.0]hexan-6-yl)-3-phenylurea] | 500 to 1000 | 1 to 5
6 | O=S(=O)(N[C@H]1[C@@H]2C[C@@](O)(c3cc(Cl)cc4cn[nH]c34)C[C@@H]21)c1ccccc1 [Example 131, N-((1R,3r,5S,6r)-3-(5-chloro-1H-indazol-7-yl)-3-hydroxybicyclo[3.1.0]hexan-6-yl)benzenesulfonamide] | 1000 to 5000 | > 5
7 | O=C(N[C@@H]1[C@H]2C=C(c3cc(Cl)cc4[nH]ncc34)C[C@H]21)C1CC1 (racemic) [Example 183, Racemic-N-((1S,5R,6S)-3-(6-chloro-1H-indazol-4-yl)bicyclo[3.1.0]hex-2-en-6-yl)cyclopropanecarboxamide] | 1000 to 5000 | > 5
8 | CC(=O)N[C@H]1[C@@H]2C[C@@](O)(c3cc(Cl)cc4[nH]ncc34)C[C@@H]21 [Example 64, N-((1R,3r,5S,6r)-3-(6-chloro-1H-indazol-4-yl)-3-hydroxybicyclo[3.1.0]hexan-6-yl)acetamide] | ≤ 500 | > 5
9 | O=C(c1ccncc1)N1C[C@@H]2C[C@@](O)(c3cc(Cl)cc4[nH]ncc34)C[C@@H]2C1 [Example 40, ((3aR,5r,6aS)-5-(6-chloro-1H-indazol-4-yl)-5-hydroxyhexahydrocyclopenta[c]pyrrol-2(1H)-yl)(pyridin-4-yl)methanone] | ≤ 500 | > 5
10 | OC1(c2cc(Cl)cc3[nH]ncc23)CC1 [Example 11, 1-(6-chloro-1H-indazol-4-yl)cyclopropanol] | ≤ 500 | > 5
11 | CC1(C)[C@H]2CN(c3c(C4CC4)ccc4cncn34)C[C@H]2CN1S(C)(=O)=O (racemic) [Example 55, Racemic-6-cyclopropyl-5-((3aR,6aS)-4,4-dimethyl-5-(methylsulfonyl)hexahydropyrrolo[3,4-c]pyrrol-2(1H)-yl)imidazo[1,5-a]pyridine] | > 5000 | > 5
12 | O=C(N[C@H]1[C@@H]2C[C@@](O)(c3cc(Cl)cc4cn[nH]c34)C[C@@H]21)C1CC1 [Example 107, N-((1R,3r,5S,6r)-3-(5-chloro-1H-indazol-7-yl)-3-hydroxybicyclo[3.1.0]hexan-6-yl)cyclopropanecarboxamide] | ≤ 500 | > 5
13 | O=C(N[C@H]1[C@@H]2C[C@@](O)(c3cc(Cl)cc4[nH]ncc34)C[C@@H]21)c1ccc(F)c(Cl)c1 [Example 150, 3-chloro-N-((1R,3r,5S,6r)-3-(6-chloro-1H-indazol-4-yl)-3-hydroxybicyclo[3.1.0]hexan-6-yl)-4-fluorobenzamide] | ≤ 500 | ≤ 0.5
14 | CNC(=O)N[C@H]1[C@@H]2C[C@@](O)(c3cc(Cl)cc4cn[nH]c34)C[C@@H]21 [Example 133, 1-((1R,3r,5S,6r)-3-(5-chloro-1H-indazol-7-yl)-3-hydroxybicyclo[3.1.0]hexan-6-yl)-3-methylurea] | 1000 to 5000 | > 5
15 | O=C(N[C@H]1[C@@H]2C[C@@](O)(c3cc(Cl)cc4[nH]ncc34)C[C@@H]21)c1cccc(F)c1 [Example 143, N-((1R,3r,5S,6r)-3-(6-chloro-1H-indazol-4-yl)-3-hydroxybicyclo[3.1.0]hexan-6-yl)-3-fluorobenzamide] | ≤ 500 | ≤ 0.5

Further lines, results first:

Row | IC50 [1] [nM] | IC50 [2] [µM] | SMILES
16 | ≤ 500 | 1 to 5 | O=S(=O)(NC1CCCCC1)N[C@H]1[C@@H]2C[C@@](O)(c3cc(Cl)cc4[nH]ncc34)C[C@@H]21 [Example 123, N′-cyclohexyl-N-((1R,3r,5S,6r)-3-(6-chloro-1H-indazol-4-yl)-3-hydroxybicyclo[3.1.0]hexan-6-yl)sulfuric diamide]
17 | ≤ 500 | > 5 | O[C@@]1(c2cc(Cl)cc3[nH]ncc23)C[C@H]2CN(c3ccncc3)C[C@H]2C1 [Example 116, (3aR,5r,6aS)-5-(6-chloro-1H-indazol-4-yl)-2-(pyridin-4-yl)octahydrocyclopenta[c]pyrrol-5-ol]
18 | ≤ 500 | ≤ 0.5 | O=C(N[C@H]1[C@@H]2C[C@@](O)(c3cc(Cl)cc4[nH]ncc34)C[C@@H]21)c1ccnc(C(F)(F)F)c1 [Example 156, N-((1R,3r,5S,6r)-3-(6-chloro-1H-indazol-4-yl)-3-hydroxybicyclo[3.1.0]hexan-6-yl)-2-(trifluoromethyl)isonicotinamide]
19 | ≤ 500 | ≤ 0.5 | O=C(N[C@H]1[C@@H]2C[C@@](O)(c3cc(Cl)cc4[nH]ncc34)C[C@@H]21)c1cccc(OC(F)(F)F)c1 [Example 145, N-((1R,3r,5S,6r)-3-(6-chloro-1H-indazol-4-yl)-3-hydroxybicyclo[3.1.0]hexan-6-yl)-3-(trifluoromethoxy)benzamide]
20 | ≤ 500 | > 5 | O=C(CC(F)(F)F)N[C@H]1[C@@H]2C[C@@](O)(c3cc(Cl)cc4[nH]ncc34)C[C@@H]21 [Example 138, N-((1R,3r,5S,6r)-3-(6-chloro-1H-indazol-4-yl)-3-hydroxybicyclo[3.1.0]hexan-6-yl)-3,3,3-trifluoropropanamide]
21 | ≤ 500 | 1 to 5 | O=C(c1nc2cc(Cl)ccc2[nH]1)N1C[C@@H]2C[C@@](O)(c3cc(Cl)cc4[nH]ncc34)C[C@@H]2C1 [Example 134, (5-chloro-1H-benzo[d]imidazol-2-yl)((3aR,5r,6aS)-5-(6-chloro-1H-indazol-4-yl)-5-hydroxyhexahydrocyclopenta[c]pyrrol-2(1H)-yl)methanone]
22 | ≤ 500 | > 5 | NC(=O)N[C@H]1[C@@H]2C[C@@](O)(c3cc(Cl)cc4[nH]ncc34)C[C@@H]21 [Example 135, 1-((1R,3r,5S,6r)-3-(6-chloro-1H-indazol-4-yl)-3-hydroxybicyclo[3.1.0]hexan-6-yl)urea]
